Assay results: patent publication US9976141B2, “Compositions and methods for inhibiting gene expression of Hif2alpha” (Arrowhead Madison Inc., priority 2015, dated 2018)
Strand notation (5' to 3'): a small letter for the sugar, then the base; units joined by * are phosphorothioate-linked, units joined directly phosphodiester-linked; [ ] holds rarer units or linkages, { } end groups; capitals alone tell only the bases. {Alk-SMPT-C6} = Alk-SMPT-C6 linker modification (publication code); [invdT] = inverted (3'-3') thymidine; d = 2'-deoxy (DNA); m = 2'-O-methyl; f = 2'-fluoro

Tested on: human (tumor) Hif2α (EPAS1) mRNA
Test: Hif2α knockdown in orthotopic RCC tumor bearing mice, single injection of RNAi trigger-delivery polymer conjugate, RT-qPCR (Table 7)
Format: in vivo
Settings: single tail vein injection, relative to isotonic glucose
Summary of the method: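 A single intravenous dose of Hif2α RNAi trigger–delivery polymer conjugate, or isotonic glucose vehicle, was given to nude mice with subcapsular A498-SEAP renal tumours (about 5–6 weeks old). At the indicated time, tumour RNA was assayed by biplex TaqMan qPCR against CycA, and relative expression was calculated by ΔΔCT versus vehicle.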

[1] = RNAi trigger 50 μg, polymer 064 125 μg
[2] = RNAi trigger 115 μg, polymer 100A 375 μg

Q: For “AD03253 (antisense UUUCAUGAAAUCGUUACGUUG; sense ACGUAACGAUUUCAUGAAAT; Hif2alpha RNAi agent antisense strand; modified_base 2,4,6,8,14 /mod_base = “2′-deoxy-2′-fluoro corresponding nucleoside”; modified_base 1,3,5,7,9,10,11,12,13,15,16,17,18,19,20,21 /mod_base = “2′-O-methyl corresponding nucleoside”; modified_base 2,3,20,21 /mod_base = “5′-phosphorothioate corresponding nucleotide”; Hif2alpha RNAi agent sense strand; modified_base 7,8,9 /mod_base = “2′-deoxy-2′-fluoro corresponding nucleoside”; modified_base 1,2,3,4,5,6,10,11,12,13,14,15,16,17,18,19 /mod_base = “2′-O-methyl corresponding nucleoside”; modified_base 20 /mod_base = “3′-3′-linked nucleotide”; modi)”, which “Relative Expression day 4 (Hif2α mRNA in kidney tumor)” value [1] is on record?
A: 0.188

Q: Which “Relative Expression day 4 (Hif2α mRNA in kidney tumor)” value [1] does the source give for “AD02857 (antisense UUUCAUGAAAUCGUUACGUUG; sense ACGUAACGAUUUCAUGAAAT; Hif2alpha RNAi agent antisense strand; modified_base 2,4,6,8,10,14 /mod_base = “2′-deoxy-2′-fluoro corresponding nucleoside”; modified_base 1,3,5,7,9,11,12,13,15,16,17,18,19,20,21 /mod_base = “2′-O-methyl corresponding nucleoside”; modified_base 2,3,20,21 /mod_base = “5′-phosphorothioate corresponding nucleotide”; Hif2alpha RNAi agent sense strand; modified_base 7,8,9 /mod_base = “2′-deoxy-2′-fluoro corresponding nucleoside”; modified_base 1,2,3,4,5,6,10,11,12,13,14,15,16,17,18,19 /mod_base = “2′-O-methyl corresponding nucleoside”; modified_base 20 /mod_base = “3′-3′-linked nucleotide”; modi)” here?
A: 0.192

Q: How did the “Relative Expression day 4 (Hif2α mRNA in kidney tumor)” value (RNAi trigger 100 μg, polymer 064 250 μg) turn out when “AD01892 (antisense UGUAAAACAAUUGUGUACUTT; sense AGUACACAAUUGUUUUACAT; Hif2alpha RNAi agent antisense strand; modified_base 2,4,6,8,10,12,14,15,18 /mod_base = “2′-deoxy-2′-fluoro corresponding nucleoside”; modified_base 1,3,5,7,9,11,13,16,17,19 /mod_base = “2′-O-methyl corresponding nucleoside”; modified_base 2,3,21 /mod_base = “5′-phosphorothioate corresponding nucleotide”; Hif2alpha RNAi agent sense strand; modified_base 1,3,4,7,9,11,13,15,17,19 /mod_base = “2′-deoxy-2′-fluoro corresponding nucleoside”; modified_base 2,5,6,8,10,12,14,16,18 /mod_base = “2′-O-methyl corresponding nucleoside”; modified_base 20 /mod_base = “3′-3′-linked nucleotide”; modified_base)” was run?
A: 0.146

Q: For “AD01023 (antisense TCUAGCAACAAAACCUUAATT; sense UUAAGGUUUUGUUGCUAGAT; Hif2alpha RNAi agent antisense strand; modified_base 2,4,8,10,12,14,16,18 /mod_base = “2′-deoxy-2′-fluoro corresponding nucleoside”; modified_base 3,5,7,9,11,13,15,17,19 /mod_base = “2′-O-methyl corresponding nucleoside”; modified_base 6 /mod_base = “2′-3′ seco corresponding nucleotide”; modified_base 21 /mod_base = “5′-phosphorothioate corresponding nucleotide”; Hif2alpha RNAi agent sense strand; modified_base 1,3,5,7,9,11,13,15,17,19 /mod_base = “2′-deoxy-2′-fluoro corresponding nucleoside”; modified_base 2,4,6,8,10,12,14,16,18 /mod_base = “2′-O-methyl corresponding nucleoside”; modified_b)”, which “Relative Expression day 4 (Hif2α mRNA in kidney tumor)” value (RNAi trigger 80 μg, polymer 126 400 μg) is on record?
A: 0.93

Q: With “AD02734 (antisense UUUCAUGAAAUCGUUACGUUG; sense ACGUAACGAUUUCAUGAAAT; Hif2alpha RNAi agent antisense strand; modified_base 2,4,6,8 /mod_base = “2′-deoxy-2′-fluoro corresponding nucleoside”; modified_base 1,3,5,7,9,10,11,12,13,14,15,16,17,18,19,20,21 /mod_base = “2′-O-methyl corresponding nucleoside”; modified_base 2,3,20,21 /mod_base = “5′-phosphorothioate corresponding nucleotide”; Hif2alpha RNAi agent sense strand; modified_base 7,9 /mod_base = “2′-deoxy-2′-fluoro corresponding nucleoside”; modified_base 1,2,3,4,5,6,8,10,11,12,13,14,15,16,17,18,19 /mod_base = “2′-O-methyl corresponding nucleoside”; modified_base 20 /mod_base = “3′-3′-linked nucleotide”; modi)” as the substance, how does the “Relative Expression day 4 (Hif2α mRNA in kidney tumor)” value (RNAi trigger 75 μg, polymer 064 187.5 μg) read?
A: 0.262

Q: How did the “Relative Expression day 4 (Hif2α mRNA in kidney tumor)” value [1] turn out when “AD03191 (antisense AGUAAAACAAUUGUGUACUUUAA; sense AAAGUACACAAUUGUUUUACT; Hif2alpha RNAi agent antisense strand; modified_base 2,4,6,8,10,14,16,18 /mod_base = “2′-deoxy-2′-fluoro corresponding nucleoside”; modified_base 1,3,5,7,9,11,12,13,15,17,19,20,21,22,23 /mod_base = “2′-O-methyl corresponding nucleoside”; modified_base 2,3,22,23 /mod_base = “5′-phosphorothioate corresponding nucleotide”; Hif2alpha RNAi agent sense strand; modified_base 7,9,10,11 /mod_base = “2′-deoxy-2′-fluoro corresponding nucleoside”; modified_base 1,2,3,4,5,6,8,12,13,14,15,16,17,18,19,20 /mod_base = “2′-O-methyl corresponding nucleoside”; modified_base 21 /mod_base = “3′-3′-linked nucleoti)” was run?
A: 0.307

Q: With “AD01522 (antisense TUUCAUGAAAUCGUUACGUTT; sense ACGUAACGAUUUCAUGAAAT; Hif2alpha RNAi agent antisense strand; modified_base 2,4,6,8,10,14,16,18 /mod_base = “2′-deoxy-2′-fluoro corresponding nucleoside”; modified_base 3,5,7,9,11,12,13,15,17,19 /mod_base = “2′-O-methyl corresponding nucleoside”; modified_base 21 /mod_base = “5′-phosphorothioate corresponding nucleotide”; Hif2alpha RNAi agent sense strand; modified_base 1,3,5,7,8,9,11,13,15,17,19 /mod_base = “2′-deoxy-2′-fluoro corresponding nucleoside”; modified_base 2,4,6,10,12,14,16,18 /mod_base = “2′-O-methyl corresponding nucleoside”; modified_base 20 /mod_base = “3′-3′-linked nucleotide”; modified_base 1 /mo)” as the substance, how does the “Relative Expression day 4 (Hif2α mRNA in kidney tumor)” value [2] read?
A: 0.44

Q: “AD01476 (antisense dTfUmUfCmAfUmGfAmAfAmUfCmGfUmUfAmCfGmUdT*dT; sense ACGUAACGAUUUCAUGAAA; siRNA; sense: sugars from the 5' end fmfmfmfmfmfmfmfmfmf, [invdT] at 3' end, all phosphodiester, 5' {Alk-SMPT-C6}, methylation of C not given here; further chemistry not fully specified)” was tested. Which “Relative Expression day 4 (Hif2α mRNA in kidney tumor)” value [2] did it give?
A: 0.32

Q: With “AD02949 (antisense UUUCAUGAAAUCGUUACGUUG; sense ACGUAACGAUUUCAUGAAAT; Hif2alpha RNAi agent antisense strand; modified_base 2,4,6,8,10,14,16,18 /mod_base = “2′-deoxy-2′-fluoro corresponding nucleoside”; modified_base 1,3,5,7,9,11,12,13,15,17,19,20,21 /mod_base = “2′-O-methyl corresponding nucleoside”; modified_base 2,3,20,21 /mod_base = “5′-phosphorothioate corresponding nucleotide”; Hif2alpha RNAi agent sense strand; modified_base 7,9,13 /mod_base = “2′-deoxy-2′-fluoro corresponding nucleoside”; modified_base 1,2,3,4,5,6,8,10,11,12,14,15,16,17,18,19 /mod_base = “2′-O-methyl corresponding nucleoside”; modified_base 20 /mod_base = “3′-3′-linked nucleotide”; modi)” as the substance, how does the “Relative Expression day 4 (Hif2α mRNA in kidney tumor)” value [1] read?
A: 0.176
